SMILES strings stand for the structures.

The experiment relates to C57BL/6J mice. Briefly: 4-odor discrimination and reversal. The class given is in vivo, mouse. The conditions noted are these: 1 mg/kg IP. How it is done: 4-Odor Discrimination and Reversal. A 4-odor discrimination and reversal behavioral assay was performed as described previously with slight modifications. Food restriction was begun five days before the discrimination and reversal tests to reduce animals' body weight to ˜80% of their starting weight. A total of 31 C57BL/6J mice 2-3 months of age were used in this assay. Eleven mice (5 males, 6 females) served as VEH/unstressed controls, 10 animals (4 males, 6 females) as a VEH/stress group, and 10 animals (4 males, 6 females) as a treatment/stress group. Both the VEH/stress and […] groups were subjected to a 7-day unpredictable mild stress protocol using previously validated stressors. Two stressors were delivered during the day, with additional overnight stressors on 4 of the days. […]

Consider `CCN(CC)C(=O)[C@@H]1C=C2c3cccc4ccn(c34)C[C@H]2N(C)C1` [(+)-JRT], for which the stimulus discrimination result (4-odor discrimination phase, stressed mice) was “does not impact stimulus discrimination”. Also, the “cognitive deficits induced by unpredictable mild stress (reversal)” value (reversal phase, after 7-day unpredictable mild stress) is listed as “rescues cognitive deficits induced by unpredictable mild stress”.
